Data reported in patent US10463593B2, “Lupin peptide extracts and skin firmness” (LABORATOIRES EXPANSCIENCE, priority 2014, dated 2019).

Key:
[1] = test system: proteins of the extracellular matrix (chiefly collagens); assay: Non-enzymatic glycation: incorporation of [3H]-glucose in extracellular matrix proteins deposited by dermal fibroblasts; type: biochemical, human; conditions: 1 mg/ml
Experimental: The non-enzymatic insertion of AGEs in synthesised collagen fibres deposited by human dermal fibroblasts cultured in vitro was examined. A radioactive detection method was used that was based on the incorporation of tritiated glucose in the proteins of the extracellular matrix.
Normal human dermal fibroblasts were cultured in the presence of vitamin C to stimulate the synthesis of collagen. The cells then underwent different operations (freezing/thawing/heating) to inactivate all enzymatic activity.
The matrix layers thus obtained were treated in the presence of the above-described lupin peptide extract at 0.2 and 2%, aminoguanidine HCl at 1 mg/ml (control), 0.2% glucose and [^3H]-glucose radioactive marker for 15 days at 37° C., in the absence of oxygen (rapid re-oxygenation was performed after 7 treatment days).
After incubation, the proteins of the extracellular matrix (chiefly collagens) were extracted using a chaotropic buffer, precipitated with trichloroacetic acid and collected on filters. The radioactivity incorporated in the ECM fibres was measured by liquid scintillation.
The results were analysed statistically using one-factor analysis of variance followed by a Dunnett test, and are given in the Table below: […]

[2] = test system: “aged” dermal equivalents seeded with senescent fibroblasts; assay: Contraction of “aged” dermal equivalents (surface area); type: cell-based; conditions: 10 ng/ml; for % “aged” control: area relative to “aged” control; for Area in mm^2 (mean ± SEM): “aged” DEs
Experimental: A model of dermal equivalents containing fibroblasts allows evaluation of the quality of interactions between fibroblasts and collagen fibres. The free contraction/retraction of these dermal equivalents results from the dynamic activity of the cells which apply tensile forces on the collagen network.
The effect of lupin peptide extract on the contraction of dermal equivalents was evaluated. To induce a condition of fibroblast loss of contractile forces, the dermal equivalents were seeded with senescent so-called “aged” fibroblasts (obtained by successive passaging in accordance with the Hayflick model).
“Aged” or normal dermal equivalents were prepared by mixing the fibroblasts (at passage 8 for normal dermal equivalents or at passage 17 for “aged” dermal equivalents) with a collagen solution.
After full gelling, the dermal equivalents were treated with TGFβ at 10 ng/ml (control) or 0.1% lupin peptide extract and incubated for 4 days.
The dermal equivalents were photographed at D1, D3 and D4 to measure their surface area for determination of contraction.

Compound | Incorporation [^3H]-glucose (cpm) ([1]; 15 days at 37° C., control 5527 ± 464) | Inhibition of glycation ([1]; versus control, p < 0.001) [% p < 0.001] | Contraction of “aged” DEs (in words) ([2]; significant after a treatment time of 4 days) | % “aged” control ([2]; D1) [%] | Area in mm^2 (mean ± SEM) ([2]; D1) [mm^2] | % “aged” control ([2]; D3) [%] | Area in mm^2 (mean ± SEM) ([2]; D3) [mm^2] | % “aged” control ([2]; D4, p < 0.05) | Area in mm^2 (mean ± SEM) ([2]; D4) [mm^2]
Cl.N=C(N)NN [Aminoguanidine, aminoguanidine HCl] | 1219 ± 92 | −78 |  |  |  |  |  |  | 
TGFβ |  |  | stimulates the contraction of “aged” DEs | 94 | 264.6 ± 5.5 | 95 | 285.9 ± 6.7 | 85 (p < 0.05) % | 201.3 ± 8.4
